According to US9301917B2, “Sustained-release pharmaceutical composition” (Kyoto University, priority 2010, dated 2016):

Tests used:
[1] = biological target: T1, collagen solution (KAI, pH 7, PB buffer) (Bos taurus, UniProt P02453+P02465); experiment: Influence of various sugars on gelation (fibrillogenesis time) of 3% collagen solution (Reference Example 3(1)); format: physicochemical; settings: collagen 3% [w/v]; sugar 0.05 to 0.5 M (monosaccharide), 0.05 to 0.25 M (disaccharide), 0.05 M raffinose, 0.05, 0.125 M stachyose; without degassing
T1 construct: atelocollagen obtained by treatment with a protease such as pepsin; KAI
T1 sequence (P02453 178-1191 limits assumed): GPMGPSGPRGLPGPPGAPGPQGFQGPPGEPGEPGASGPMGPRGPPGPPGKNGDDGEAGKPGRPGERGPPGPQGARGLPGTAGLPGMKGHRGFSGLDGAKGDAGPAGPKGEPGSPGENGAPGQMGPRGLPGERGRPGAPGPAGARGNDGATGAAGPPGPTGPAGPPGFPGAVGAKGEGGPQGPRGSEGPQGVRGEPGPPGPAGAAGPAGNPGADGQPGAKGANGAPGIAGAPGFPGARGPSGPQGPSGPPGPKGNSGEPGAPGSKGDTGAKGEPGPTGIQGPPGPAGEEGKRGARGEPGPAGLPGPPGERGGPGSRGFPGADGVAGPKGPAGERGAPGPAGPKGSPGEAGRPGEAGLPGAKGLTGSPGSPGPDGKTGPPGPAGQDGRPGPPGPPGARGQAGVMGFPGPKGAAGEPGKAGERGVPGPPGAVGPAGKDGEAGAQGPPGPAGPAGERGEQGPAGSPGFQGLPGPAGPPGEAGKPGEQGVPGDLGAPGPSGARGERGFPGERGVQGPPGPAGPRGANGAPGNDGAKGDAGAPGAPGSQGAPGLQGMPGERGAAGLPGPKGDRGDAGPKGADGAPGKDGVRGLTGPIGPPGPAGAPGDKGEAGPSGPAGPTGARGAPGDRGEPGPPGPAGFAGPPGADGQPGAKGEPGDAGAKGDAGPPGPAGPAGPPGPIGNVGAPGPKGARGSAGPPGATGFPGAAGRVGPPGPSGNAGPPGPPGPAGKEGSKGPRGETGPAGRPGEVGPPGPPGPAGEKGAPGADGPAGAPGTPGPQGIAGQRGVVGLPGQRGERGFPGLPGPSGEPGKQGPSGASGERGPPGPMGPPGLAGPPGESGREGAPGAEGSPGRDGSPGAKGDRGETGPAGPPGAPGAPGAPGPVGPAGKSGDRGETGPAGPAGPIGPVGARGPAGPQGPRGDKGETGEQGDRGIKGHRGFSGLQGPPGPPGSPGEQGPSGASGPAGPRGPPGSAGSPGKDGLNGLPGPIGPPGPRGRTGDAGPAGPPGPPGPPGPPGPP
T1 sequence (P02465 80-1117 limits assumed): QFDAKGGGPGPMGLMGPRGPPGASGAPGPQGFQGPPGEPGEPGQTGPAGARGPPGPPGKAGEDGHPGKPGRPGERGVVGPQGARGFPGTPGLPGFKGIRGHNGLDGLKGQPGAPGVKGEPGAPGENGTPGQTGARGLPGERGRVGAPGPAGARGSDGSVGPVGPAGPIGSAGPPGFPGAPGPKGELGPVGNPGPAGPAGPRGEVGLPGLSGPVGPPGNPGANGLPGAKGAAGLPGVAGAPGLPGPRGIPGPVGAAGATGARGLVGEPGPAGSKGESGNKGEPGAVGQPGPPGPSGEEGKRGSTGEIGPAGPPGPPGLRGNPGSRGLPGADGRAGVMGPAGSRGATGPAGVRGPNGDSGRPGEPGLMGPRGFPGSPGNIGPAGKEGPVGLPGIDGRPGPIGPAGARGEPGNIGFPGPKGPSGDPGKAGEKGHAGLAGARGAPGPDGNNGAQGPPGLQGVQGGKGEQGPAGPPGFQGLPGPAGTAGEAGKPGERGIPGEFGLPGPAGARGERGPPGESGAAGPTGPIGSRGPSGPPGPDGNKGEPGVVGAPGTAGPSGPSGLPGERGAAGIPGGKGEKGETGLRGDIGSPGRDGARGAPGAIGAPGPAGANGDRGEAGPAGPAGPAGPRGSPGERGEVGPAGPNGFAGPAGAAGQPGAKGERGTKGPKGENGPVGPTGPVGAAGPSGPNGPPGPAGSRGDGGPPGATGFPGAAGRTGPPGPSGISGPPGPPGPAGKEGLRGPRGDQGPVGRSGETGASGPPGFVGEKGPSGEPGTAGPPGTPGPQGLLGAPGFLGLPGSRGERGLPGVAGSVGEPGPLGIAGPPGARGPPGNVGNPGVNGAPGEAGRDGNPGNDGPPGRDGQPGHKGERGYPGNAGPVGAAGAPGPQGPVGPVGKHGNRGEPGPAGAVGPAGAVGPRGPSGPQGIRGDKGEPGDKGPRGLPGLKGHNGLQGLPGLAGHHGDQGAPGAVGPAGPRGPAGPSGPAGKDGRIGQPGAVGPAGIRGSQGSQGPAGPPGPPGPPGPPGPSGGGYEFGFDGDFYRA
Method: • (1) The kind and concentration of a sugar to be added were changed, and an ability of the sugar to suppress the gelation of a collagen solution was confirmed by measuring a fibrillogenesis time.
The collagen was prepared so that the final concentration was 3% [w/v]. KAI (pH 7, PB buffer) was used as the collagen. The kinds and final concentrations of the used sugars are as described below. • (i) Monosaccharide: Glucose or Fructose
0.05, 0.125, 0.25, 0.5 M • (ii) Disaccharide: sucrose or maltose
0.05, 0.125, 0.25 M • (iii) Trisaccharide: raffinose
0.05 M • (iv) Tetrasaccharide: stachyose
It should be noted that, in this reference example, measurements were carried out without degassing.

[2] = system: KS collagen solution; experiment: Influence of tetrasaccharide on gelation of 0.4% collagen solution (Reference Example 3(2)); format: physicochemical; settings: collagen 0.4% [w/v], pH 7; 0.05 M stachyose
Source text: (2) The influence of a tetrasaccharide on a gelation ability was confirmed in the same manner as in the above-mentioned method (1) except that: the concentration of the collagen was changed to 0.4% [w/v]; and KS collagen (pH 3) adjusted to pH 7 with a neutralization liquid (7% [w/v] Na2HPO4, 0.9% [w/v] NaCl) was used as the collagen solution. 0.05 M stachyose was used as the tetrasaccharide in the same manner as in the method (1).

[3] = biological target: T1, collagen solution (KAI, pH 7, PB buffer); experiment: Influence of maltotetraose and maltopentaose on gelation of collagen solution (Reference Example 4); format: physicochemical; settings: collagen 3% [w/v]; sugar 0.05, 0.125 M
Method: The kind and concentration of a sugar to be added were changed, and an ability of the sugar to suppress the gelation of a collagen solution was confirmed by measuring a fibrillogenesis time.
The collagen was prepared so that the final concentration was 3% [w/v]. KAI (pH 7, PB buffer) was used as the collagen. The kinds and final concentrations of the used sugars are as described below. • (i) Tetrasaccharide: maltotetraose
0.05, 0.125 M • (ii) Pentasaccharide: maltopentaose

[4] = biological target: T2, collagen solution (KOKEN ATELOCOLLAGEN IMPLANT) (Bos taurus, UniProt P02453+P02465); experiment: Spectroscopic evaluation of influence of sugar on gelation ability of collagen solution (Reference Example 1); format: physicochemical; settings: sucrose 0.01 or 0.25 M in collagen 3% [w/v], pH 7.4, 37° C., absorbance at 400 nm
T2 construct: atelocollagen obtained by treatment with a protease such as pepsin; purchased KOKEN CO., LTD; KOKEN ATELOCOLLAGEN IMPLANT
T2 sequence (P02453 178-1191 limits assumed): as the sequence (P02453 178-1191 limits assumed) above
T2 sequence (P02465 80-1117 limits assumed): as the sequence (P02465 80-1117 limits assumed) above
Method: (§1) Specifically, a sucrose solution was added to a collagen solution (pH 7.4, final concentration: 3% [w/v]) (product name: KOKEN ATELOCOLLAGEN IMPLANT) so that the final concentration was 0, 0.01, or 0.25 M, followed by mixing. The mixed solution was measured for its time-dependent change in absorbance at 400 nm with a spectrophotometer while being heated at 37° C.

[5] = system: Type I atelocollagen; experiment: Spectroscopic evaluation of influence of sugar on gelation of various collagen solutions (Reference Example 2); format: physicochemical, bovine, porcine; settings: 0.25 M sucrose, 1×PBS, 37° C., absorbance at 400 nm, 3 hours
Method: (§2) The influences of a sugar on the gelation abilities (fibrillogenic abilities) of various collagen solutions were investigated.
First, various collagens were each diluted to 0.2% [w/v] with 1 mM HCl. The various collagens used were as follows. • Type I atelocollagen (3.5% KAI: bovine, Lot. 1-107, pH 7) • Type I atelocollagen (3% KAI: porcine, stock of the laboratory, pH 7) • Type II atelocollagen (CL-22, Lot. 622052, pH 3) • Type III atelocollagen (NIP, 0.3% PSC-3-100-20, Lot. BSP310G001, 5 mM acetic acid) • Type I native collagen (1% 1-AC, Lot. 6002173, pH 3) • Shark atelocollagen (produced in the laboratory, powder, stored at −30° C.) […]
(§3) 100 μl of each of the prepared samples were added to a 96-well microplate and measured for its time-dependent change in absorbance at 400 nm (measurement interval: 30 seconds, measurement time: 3 hours) with an optical absorption microplate reader (TECAN, SUNRISE Thermo RC-R) while heated at 37° C. An average of the measured values (n=3) at the respective times was calculated.

[6] = system: Shark atelocollagen; experiment: as above; format: physicochemical; settings: 0.25 M sucrose, 1×PBS, 37° C., absorbance at 400 nm, 3 hours
Method: as §2
(§4) First, various collagens were each diluted to 0.2% [w/v] with 1 mM HCl. The various collagens used were as follows. • Type I atelocollagen (3.5% KAI: bovine, Lot. 1-107, pH 7) • Type I atelocollagen (3% KAI: porcine, stock of the laboratory, pH 7) • Type II atelocollagen (CL-22, Lot. 622052, pH 3) • Type III atelocollagen (NIP, 0.3% PSC-3-100-20, Lot. BSP310G001, 5 mM acetic acid) • Type I native collagen (1% 1-AC, Lot. 6002173, pH 3) • Shark atelocollagen (produced in the laboratory, powder, stored at −30° C.)
(§5) Distilled water (OTSUKA DISTILLED WATER, Cat. 1324, Lot. 0J90N), 2.5 M sucrose (Wako Pure Chemical Industries, Ltd., Cat. 196-00015, Lot. CKM1674), 100 mg/mL lysozyme (Tokyo Chemical Industry Co., Ltd., Cat. L072), and 10×PBS (DULBECCO′PBS, Dainippon Sumitomo Pharma Co., Ltd., Cat. 28-103-05 FN, Lot. 896458) were added to each of the various collagen solutions at 0.2% [w/v] to prepare a solution having final concentrations of 0.2% [w/v] collagen/0.25 M sucrose/10 mg/mL lysozyme/1×PBS. At this time, the ingredients were added so that the collagen, distilled water, sucrose, lysozyme, and PBS were mixed in this order.
as §3

[7] = biological target: T3, Type I native collagen (Bos taurus, UniProt P02453+P02465); experiment: as above; format: physicochemical; settings: 0.25 M sucrose, 1×PBS, 37° C., absorbance at 400 nm, 3 hours
T3 construct: Type I native collagen (1% 1-AC, Lot. 6002173, pH 3); purchased 1-AC, Lot; 6002173
T3 sequence (P02465 80-1117): as the sequence (P02465 80-1117 limits assumed) above
T3 sequence (P02453 162-1217): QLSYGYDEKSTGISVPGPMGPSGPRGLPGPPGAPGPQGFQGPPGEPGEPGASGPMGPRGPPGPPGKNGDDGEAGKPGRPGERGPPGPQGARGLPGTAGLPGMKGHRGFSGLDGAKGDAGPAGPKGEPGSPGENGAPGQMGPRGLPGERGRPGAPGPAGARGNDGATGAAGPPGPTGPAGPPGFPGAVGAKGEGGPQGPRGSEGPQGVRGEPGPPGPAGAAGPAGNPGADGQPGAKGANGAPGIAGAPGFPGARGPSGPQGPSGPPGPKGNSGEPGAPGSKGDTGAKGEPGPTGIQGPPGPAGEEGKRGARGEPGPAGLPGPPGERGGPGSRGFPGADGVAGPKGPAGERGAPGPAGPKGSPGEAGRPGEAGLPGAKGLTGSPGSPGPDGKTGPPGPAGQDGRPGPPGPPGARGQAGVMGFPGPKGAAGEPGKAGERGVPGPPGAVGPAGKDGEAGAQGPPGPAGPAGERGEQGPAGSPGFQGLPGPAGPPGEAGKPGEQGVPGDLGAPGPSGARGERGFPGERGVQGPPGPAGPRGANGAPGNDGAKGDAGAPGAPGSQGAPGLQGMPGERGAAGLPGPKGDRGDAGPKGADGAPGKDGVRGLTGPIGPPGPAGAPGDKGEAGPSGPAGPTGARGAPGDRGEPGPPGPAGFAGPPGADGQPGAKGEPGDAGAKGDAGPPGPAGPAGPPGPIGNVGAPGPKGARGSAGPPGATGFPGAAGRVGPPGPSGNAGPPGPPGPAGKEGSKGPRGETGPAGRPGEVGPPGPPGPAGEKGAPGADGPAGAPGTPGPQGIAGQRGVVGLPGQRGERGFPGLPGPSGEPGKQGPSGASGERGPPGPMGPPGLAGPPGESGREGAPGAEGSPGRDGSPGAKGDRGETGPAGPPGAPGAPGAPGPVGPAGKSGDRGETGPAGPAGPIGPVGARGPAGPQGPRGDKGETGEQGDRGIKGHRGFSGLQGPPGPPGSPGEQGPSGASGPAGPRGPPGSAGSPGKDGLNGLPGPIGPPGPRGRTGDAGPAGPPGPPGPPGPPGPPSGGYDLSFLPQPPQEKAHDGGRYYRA
Method: as §2, §4, §5, §3

[8] = biological target: T4, Type II atelocollagen (Bos taurus, UniProt P02459); experiment: as above; format: physicochemical; settings: 0.25 M sucrose, 1×PBS, 37° C., absorbance at 400 nm, 3 hours
T4 construct: atelocollagen obtained by treatment with a protease such as pepsin; purchased CL-22, Lot; 622052
T4 sequence (P02459 201-1214 limits assumed): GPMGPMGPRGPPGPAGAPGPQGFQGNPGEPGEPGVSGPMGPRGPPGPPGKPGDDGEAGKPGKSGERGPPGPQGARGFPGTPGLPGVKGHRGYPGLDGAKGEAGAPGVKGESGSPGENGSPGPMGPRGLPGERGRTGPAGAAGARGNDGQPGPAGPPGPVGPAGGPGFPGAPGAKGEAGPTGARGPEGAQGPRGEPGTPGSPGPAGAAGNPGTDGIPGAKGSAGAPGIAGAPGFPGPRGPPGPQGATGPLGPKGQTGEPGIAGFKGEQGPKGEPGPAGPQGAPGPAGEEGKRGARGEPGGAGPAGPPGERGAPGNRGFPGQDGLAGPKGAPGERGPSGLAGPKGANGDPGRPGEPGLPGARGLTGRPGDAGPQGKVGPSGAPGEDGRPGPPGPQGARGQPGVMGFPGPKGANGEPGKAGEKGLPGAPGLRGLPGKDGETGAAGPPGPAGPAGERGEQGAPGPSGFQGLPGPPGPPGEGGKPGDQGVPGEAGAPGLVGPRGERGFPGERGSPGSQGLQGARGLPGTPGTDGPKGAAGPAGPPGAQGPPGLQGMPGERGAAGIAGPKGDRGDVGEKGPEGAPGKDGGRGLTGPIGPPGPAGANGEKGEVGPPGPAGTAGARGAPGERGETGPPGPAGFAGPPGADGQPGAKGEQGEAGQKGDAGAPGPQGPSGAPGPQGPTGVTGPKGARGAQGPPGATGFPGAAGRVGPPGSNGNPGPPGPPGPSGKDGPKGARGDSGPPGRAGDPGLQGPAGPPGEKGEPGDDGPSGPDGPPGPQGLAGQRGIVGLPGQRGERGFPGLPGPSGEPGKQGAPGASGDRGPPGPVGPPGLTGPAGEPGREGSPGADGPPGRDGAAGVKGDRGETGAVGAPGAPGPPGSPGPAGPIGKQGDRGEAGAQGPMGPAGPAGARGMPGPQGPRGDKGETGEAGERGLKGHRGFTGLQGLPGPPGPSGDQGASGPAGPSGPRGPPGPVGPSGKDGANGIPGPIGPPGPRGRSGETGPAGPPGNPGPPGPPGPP
Method: as §2, §4, §5, §3

[9] = biological target: T5, Type III atelocollagen (Bos taurus, UniProt P04258); experiment: as above; format: physicochemical; settings: 0.25 M sucrose, 1×PBS, 37° C., absorbance at 400 nm, 3 hours
T5 construct: atelocollagen obtained by treatment with a protease such as pepsin; purchased NIP PSC-3-100-20, Lot; BSP310G001
T5 sequence (P04258 15-1040 limits assumed): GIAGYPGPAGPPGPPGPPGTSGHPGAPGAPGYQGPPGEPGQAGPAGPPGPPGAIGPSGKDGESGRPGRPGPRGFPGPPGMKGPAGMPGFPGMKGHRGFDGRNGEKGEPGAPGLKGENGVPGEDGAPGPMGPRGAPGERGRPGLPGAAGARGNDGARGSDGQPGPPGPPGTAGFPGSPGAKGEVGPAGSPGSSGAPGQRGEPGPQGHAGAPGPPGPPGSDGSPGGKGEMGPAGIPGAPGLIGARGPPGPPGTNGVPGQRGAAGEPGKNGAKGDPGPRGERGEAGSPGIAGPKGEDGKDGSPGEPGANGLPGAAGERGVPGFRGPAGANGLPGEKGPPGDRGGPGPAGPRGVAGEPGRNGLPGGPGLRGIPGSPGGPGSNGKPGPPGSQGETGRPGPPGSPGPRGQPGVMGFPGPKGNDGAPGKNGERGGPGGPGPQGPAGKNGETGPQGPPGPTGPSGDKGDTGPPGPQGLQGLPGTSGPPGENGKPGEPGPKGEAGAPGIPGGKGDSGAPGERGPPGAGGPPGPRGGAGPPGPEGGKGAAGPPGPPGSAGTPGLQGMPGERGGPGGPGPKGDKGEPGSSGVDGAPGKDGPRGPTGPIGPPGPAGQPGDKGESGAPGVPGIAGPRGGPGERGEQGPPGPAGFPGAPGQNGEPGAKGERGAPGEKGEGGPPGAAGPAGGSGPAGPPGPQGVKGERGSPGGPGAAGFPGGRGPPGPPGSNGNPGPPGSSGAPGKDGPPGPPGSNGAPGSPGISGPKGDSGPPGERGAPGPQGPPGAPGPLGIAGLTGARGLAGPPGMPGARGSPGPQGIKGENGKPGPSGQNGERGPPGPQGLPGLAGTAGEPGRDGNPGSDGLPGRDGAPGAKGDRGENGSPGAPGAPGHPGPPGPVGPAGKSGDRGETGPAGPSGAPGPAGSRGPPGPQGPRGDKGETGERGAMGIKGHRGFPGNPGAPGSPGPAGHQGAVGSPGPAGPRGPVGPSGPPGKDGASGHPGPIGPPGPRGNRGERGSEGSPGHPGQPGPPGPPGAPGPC
Method: as §2, §4, §5, §3

[10] = biological target: T2, collagen solution (KOKEN ATELOCOLLAGEN IMPLANT); experiment: Influence of sucrose, glucose and glucuronic acid on gelation of collagen solution (Reference Example 7); format: physicochemical; settings: sugar 0.01 M, collagen 3% [w/v], pH 7.4, 37° C., absorbance at 400 nm
Method: The following sugars were used as sugars to be added, and an ability of the sugar to suppress the gelation of a collagen solution was confirmed by measuring a fibrillogenesis time.
Monosaccharides: Glucose and Glucuronic Acid
as §1, with “Each of various sugar solutions” for “Specifically, a sucrose solution”, “(KOKEN” for “(product name: KOKEN”, “IMPLANT [KOKEN CO., LTD.])” for “IMPLANT)”, “0.01” for “0, 0.01, or 0.25”

[11] = In vivo drug sustained-release ability of thyroglobulin formulation (Example 11); settings: thyroglobulin (669 kDa) with atelocollagen 3% [w/v], sucrose 0.25 M; 100 μL subcutaneous in mice; afterwards low sustained-release rate
Source text: The sustained-release amount of thyroglobulin was quantitatively measured by HPLC in a time-dependent manner.
3.5% [w/v] atelocollagen Lot. I-175, Kasai Lac, 2.5 M sucrose, and a 100-mg protein solution were mixed at a blending ratio of 8:1:1. First, syringes filled with atelocollagen and sucrose were connected in series on ice, followed by thorough mixing by reciprocation 50 times. The mixed liquid was mixed with the protein solution by syringe reciprocation 50 times immediately before subcutaneous injection into mice.
The mice were purchased from Japan SLC, Inc. ICR strain female mice were purchased at 7-week-old 1 week before use and used at 8-week old. The collagen mixed liquid was injected into three sites in an amount of 100 μL per site (n=3). Each of samples after 0, minutes, 30 minutes, 45 minutes, 1 hour, 3 hours, 6 hours, and 12 hours was extirpated and heated to 80° C. in an Eppendorf tube so as to denature the collagen into a solution form. Each of the samples was analyzed through use of Agilent HPLC and an SEC-4 gel filtration column to quantify the concentration of the protein in the gel. In the HPLC, thyroglobulin is eluted at 5.927 minutes.

## OC[C@H]1O[C@H](OC[C@H]2O[C@H](OC[C@H]3O[C@H](O[C@]4(CO)O[C@H](CO)[C@@H](O)[C@@H]4O)[C@H](O)[C@@H](O)[C@@H]3O)[C@H](O)[C@@H](O)[C@H]2O)[C@H](O)[C@@H](O)[C@H]1O [stachyose]
[1]
  suppression of gelation of collagen (fibrillogenesis time): hardly confirmed
[2]
  fibrillogenesis time of the collagen solution: delayed

## OC[C@H]1O[C@H](OC[C@H]2O[C@H](O[C@]3(CO)O[C@H](CO)[C@@H](O)[C@@H]3O)[C@H](O)[C@@H](O)[C@@H]2O)[C@H](O)[C@@H](O)[C@H]1O [raffinose]
[1]
  suppression of gelation of collagen (fibrillogenesis time): delayed as compared to the case of adding no sugar

## O=C(CO)[C@@H](O)[C@H](O)[C@H](O)CO [fructose]
[1]
  suppression of gelation of collagen (fibrillogenesis time): suppressed in a concentration-dependent manner

## maltopentaose
[3]
  fibrillogenesis suppressing effect (fibrillogenesis time): substantially no delay

## OC[C@H]1O[C@@](CO)(O[C@H]2O[C@H](CO)[C@@H](O)[C@H](O)[C@H]2O)[C@@H](O)[C@@H]1O [sucrose]
[4]
  influence on gelation of collagen solution: delayed in a sucrose concentration-dependent manner
[5]
  influence on gelation of collagen solution: suppressed gelation
[6]
  influence on gelation of collagen solution: suppressed gelation
[7]
  influence on gelation of collagen solution: suppressed gelation
[8]
  influence on gelation of collagen solution: suppressed gelation
[9]
  influence on gelation of collagen solution: suppressed gelation
[1]
  suppression of gelation of collagen (fibrillogenesis time): suppressed in a concentration-dependent manner
[10]
  gelation suppressing effect: high gelation suppressing effect

## thyrogloblin: high molecular weight protein (669 kDa) used as drug in sucrose/atelocollagen formulation
[11]
  period of fast release after the injection: ≤ 3 h

## OC[C@H]1O[C@H](O[C@H]2[C@H](O)[C@@H](O)C(O)O[C@@H]2CO)[C@H](O)[C@@H](O)[C@@H]1O (mixture of isomers) [maltose]
[1]
  suppression of gelation of collagen (fibrillogenesis time): suppressed in a concentration-dependent manner

## O=C[C@H](O)[C@@H](O)[C@H](O)[C@H](O)C(=O)O [glucuronic acid]
[10]
  gelation suppressing effect: low gelation suppressing effect as compared to glucose

## OC[C@H]1O[C@H](O[C@H]2[C@H](O)[C@@H](O)[C@@H](O[C@H]3[C@H](O)[C@@H](O)[C@@H](O[C@H]4[C@H](O)[C@@H](O)C(O)O[C@@H]4CO)O[C@@H]3CO)O[C@@H]2CO)[C@H](O)[C@@H](O)[C@@H]1O (some centres unmarked) [Maltotetraose, maltotetraose]
[3]
  fibrillogenesis suppressing effect (fibrillogenesis time): comparable to that of the monosaccharide
